Assay results reported in PMC6301899, “Characterization, expression and application of a zearalenone degrading enzyme from Neurospora crassa” (AMB Express, 2018).

Target: T1, ZENC (Neurospora crassa, UniProt Q1K8M1)
T1 construct: gene NCU05345; codon-optimised full gene (888 bp; 295 residues in abstract, 296 in results) fused to alpha-factor signal peptide in pPIC9K; secreted from Pichia pastoris GS115, HiTrap Q purified; about 29 kDa by SDS-PAGE; proposed catalytic triad Ser117, Asp141, His274
T1 sequence (Q1K8M1 entry or part of it): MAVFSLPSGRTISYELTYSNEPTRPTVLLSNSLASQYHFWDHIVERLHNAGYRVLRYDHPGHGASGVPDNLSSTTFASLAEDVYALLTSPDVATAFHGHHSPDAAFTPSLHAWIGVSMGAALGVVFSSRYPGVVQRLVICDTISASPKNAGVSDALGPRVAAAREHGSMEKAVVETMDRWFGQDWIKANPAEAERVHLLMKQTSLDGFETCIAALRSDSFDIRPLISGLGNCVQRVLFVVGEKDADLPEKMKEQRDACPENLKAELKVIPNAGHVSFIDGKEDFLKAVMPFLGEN
Assay: HPLC with fluorescence detection of remaining substrate; nonlinear Hill fit with n = […]
Assay type: biochemical
Conditions: 50 mM Tris-HCl pH 8.0, 45 °C, 3 min; substrate range printed as 2 to 220 mM

For C[C@H]1CCCC(=O)CCC/C=C/c2cc(O)cc(O)c2C(=O)O1 [zearalenone], the Km was 38.6 ± 5.87 µM.
